What all share (format): biochemical, Pseudomonas fragi B-0771
The target in assay [1] is T1, 3-hydroxyacyl-CoA dehydrogenase activity of multi-active enzyme (Pseudomonas fragi, UniProt P28793).
T1 construct: Crude enzyme was prepared from microbial cells of Pseudomonas fragi B-0771; endogenous in cells; host or cells: Pseudomonas fragi B-0771 FERM-P No. 5701 (enzyme extracted with lysozyme and purified from its own cells, not recombinant)
As to the kind of experiment: Effect of surface active agents on 3-hydroxyacyl-CoA dehydrogenase activity. The settings on record: 10 min, 0.1% surface active agent, control 100; for activity at 0.1 %: read-out: Relative activity. The procedure: (§1) The enzyme solution (50 μl) was added to the above reaction mixture, which was preincubated at 27° C. for 2 minutes, and the mixture was incubated at 37° C. for 10 minutes. 0.5% sodium dodecyl sulfate (2.0 ml) was added to stop the reaction and the absorbency was measured at 550 nm (ΔA550) One unit (1 U) is defined as the amount of enzyme which generates 1 μmole of reduced NAD in one minute. Enzyme activity is defined by the following equation: [formula] (c) Assay method of 3-ketoacyl-CoA thiolase activity:
(10) Effect of surface active agents:
The effect of surface active agents was measured on 3-hydroxyacyl-CoA dehydrogenase activity.

In assay [2] the target is T1, 3-hydroxyacyl-CoA dehydrogenase activity of multi-active enzyme. As to the kind of experiment: Substrate specificity of 3-hydroxyacyl-CoA dehydrogenase activity. The note with it: 3-hydroxyacyl-CoA used as substrate of 3-hydroxyacyl-CoA dehydrogenase activity. The procedure:
as §1
3-hydroxyacyl-CoA dehydrogenase activity was measured by using the following embodiments of 3-hydroxyacyl-CoA: […]

Assay [3] shares this target. As to the kind of experiment: Effect of metal ions on 3-hydroxyacyl-CoA dehydrogenase activity. The settings on record: 1 mM metal ion; control 100; 10 min. The method, then: as §1
(9) Effect of metal ions:
The effect of metal ions was measured on 3-hydroxyacyl-CoA dehydrogenase activity.

T1 sequence (P28793 whole entry): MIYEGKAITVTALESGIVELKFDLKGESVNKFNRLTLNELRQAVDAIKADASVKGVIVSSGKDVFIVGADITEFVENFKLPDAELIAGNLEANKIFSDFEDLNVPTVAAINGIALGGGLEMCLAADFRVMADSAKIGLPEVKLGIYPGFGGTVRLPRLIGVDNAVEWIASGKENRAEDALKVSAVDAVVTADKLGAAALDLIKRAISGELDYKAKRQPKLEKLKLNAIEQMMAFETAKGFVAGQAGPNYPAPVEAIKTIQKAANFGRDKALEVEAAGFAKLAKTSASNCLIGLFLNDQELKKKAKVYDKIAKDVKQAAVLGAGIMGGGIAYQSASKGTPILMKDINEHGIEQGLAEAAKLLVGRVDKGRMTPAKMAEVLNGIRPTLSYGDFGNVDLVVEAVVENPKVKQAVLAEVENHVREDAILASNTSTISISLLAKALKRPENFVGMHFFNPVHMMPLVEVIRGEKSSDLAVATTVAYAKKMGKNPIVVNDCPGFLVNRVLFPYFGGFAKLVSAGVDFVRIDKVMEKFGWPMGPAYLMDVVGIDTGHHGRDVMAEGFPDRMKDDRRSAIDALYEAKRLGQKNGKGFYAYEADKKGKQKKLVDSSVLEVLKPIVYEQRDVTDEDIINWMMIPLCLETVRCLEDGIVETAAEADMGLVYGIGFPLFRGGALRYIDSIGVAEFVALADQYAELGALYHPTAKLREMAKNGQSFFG
T1 sequence (P28790 whole entry partner): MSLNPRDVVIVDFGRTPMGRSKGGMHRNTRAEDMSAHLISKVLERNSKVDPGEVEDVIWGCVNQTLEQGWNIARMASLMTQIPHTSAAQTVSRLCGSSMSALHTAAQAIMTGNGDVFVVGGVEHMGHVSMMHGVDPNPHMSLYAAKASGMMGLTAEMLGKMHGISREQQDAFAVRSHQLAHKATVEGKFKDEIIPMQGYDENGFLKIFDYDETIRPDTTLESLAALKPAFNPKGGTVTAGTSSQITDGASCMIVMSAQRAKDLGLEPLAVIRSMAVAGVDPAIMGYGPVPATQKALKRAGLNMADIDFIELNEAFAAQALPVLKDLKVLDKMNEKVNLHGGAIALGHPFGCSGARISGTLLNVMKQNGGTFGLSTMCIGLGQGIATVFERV

In the case of `CCCCCCCCCCCCOS(=O)(=O)[O-].[Na+]` [sodium lauryl sulfate], the activity at 0.1 % in assay [1] is 0%.
`CCCCCCCCCC(O)CC(=O)SCCNC(=O)CCNC(=O)[C@H](O)C(C)(C)COP(=O)(O)OP(=O)(O)OC[C@H]1O[C@@H](n2cnc3c(N)ncnc32)[C@H](O)[C@@H]1OP(=O)(O)O` (some centres unmarked) [3-hydroxylauryl-CoA]: the Relative activity in assay [2] is on record as 100.0%.
Still for that read-out and setting: then `CCCCCCCC(O)CC(=O)SCCNC(=O)CCNC(=O)[C@H](O)C(C)(C)COP(=O)(O)OP(=O)(O)OC[C@H]1O[C@@H](n2cnc3c(N)ncnc32)[C@H](O)[C@@H]1OP(=O)(O)O` (some centres unmarked) [3-hydroxycapryl-CoA], with 99.0%.
As to `C[C@H](CCC(=O)O)[C@H]1CC[C@H]2[C@@H]3CC[C@@H]4C[C@H](O)CC[C@]4(C)[C@H]3C[C@H](O)[C@]12C` [sodium deoxycholate], the activity at 0.1 % in assay [1] came out at 2%.
For the molecule `CCCCCC(O)CC(=O)SCCNC(=O)CCNC(=O)[C@H](O)C(C)(C)COP(=O)(O)OP(=O)(O)OC[C@H]1O[C@@H](n2cnc3c(N)ncnc32)[C@H](O)[C@@H]1OP(=O)(O)O` (some centres unmarked) [3-hydroxycaprylyl-CoA], in assay [2], the Relative activity is reported as 88.1%.
Consider `[Cl][Mn][Cl]` [MnCl2], for which the Relative activity in assay [3] worked out at 32%.
Regarding `CCCC(O)CC(=O)SCCNC(=O)CCNC(=O)[C@H](O)C(C)(C)COP(=O)(O)OP(=O)(O)OC[C@H]1O[C@@H](n2cnc3c(N)ncnc32)[C@H](O)[C@@H]1OP(=O)(O)O` (some centres unmarked) [3-hydroxycaproyl-CoA], the Relative activity in assay [2] worked out at 56.5%.
Same read-out and setting: then `CCCCCCCCCCCCCC(O)CC(=O)SCCNC(=O)CCNC(=O)[C@H](O)C(C)(C)COP(=O)(O)OP(=O)(O)OC[C@H]1O[C@@H](n2cnc3c(N)ncnc32)[C@H](O)[C@@H]1OP(=O)(O)O` (some centres unmarked) [3-hydroxypalmitoyl-CoA], with 75.5%.
The same measure, in the same setting: next, `CCCCCCCCCCCCCCCC(O)CC(=O)SCCNC(=O)CCNC(=O)[C@H](O)C(C)(C)COP(=O)(O)OP(=O)(O)OC[C@H]1O[C@@H](n2cnc3c(N)ncnc32)[C@H](O)[C@@H]1OP(=O)(O)O` (some centres unmarked) [3-hydroxystearyl-CoA]: 30.5%.
As for `[Cl][Ni][Cl]` [NiCl2], the Relative activity in assay [3] came to 95%.
For `CC/C=C\C/C=C\C/C=C\CCCCCC(O)CC(=O)SCCNC(=O)CCNC(=O)[C@H](O)C(C)(C)COP(=O)(O)OP(=O)(O)OC[C@H]1O[C@@H](n2cnc3c(N)ncnc32)[C@H](O)[C@@H]1OP(=O)(O)O` (some centres unmarked) [3-hydroxylinolenyl-CoA], the Relative activity in assay [2] amounted to 99.0%.
With laurylbenzene sulfonate, in assay [1], the Relative activity is 0%.
Consider `[Cl][Cu][Cl]` [CuCl2], for which the Relative activity in assay [3] is recorded as 12%.
Same read-out and setting: then `[Ca+2].[Cl-].[Cl-]` [CaCl 2], with 113%.
Same read-out and setting: then `[Cl-].[Cl-].[Mg+2]` [MgCl2], with 113%.
With `CCCCCCCCCCCCCCCCCC(O)CC(=O)SCCNC(=O)CCNC(=O)[C@H](O)C(C)(C)COP(=O)(O)OP(=O)(O)OC[C@H]1O[C@@H](n2cnc3c(N)ncnc32)[C@H](O)[C@@H]1OP(=O)(O)O` (some centres unmarked) [3-hydroxyarachidoyl-CoA], the Relative activity in assay [2] stood at 9.5%.
Turning to Triton X-100, the Relative activity in assay [1] was determined as 96%.
Regarding `CCCCCCCCCCCC(O)CC(=O)SCCNC(=O)CCNC(=O)[C@H](O)C(C)(C)COP(=O)(O)OP(=O)(O)OC[C@H]1O[C@@H](n2cnc3c(N)ncnc32)[C@H](O)[C@@H]1OP(=O)(O)O` (some centres unmarked) [3-hydroxymyristoyl-CoA], the Relative activity in assay [2] is reported as 98.0%.
The same measure, in the same setting: then `CCCCCCCC/C=C\CCCCCC(O)CC(=O)SCCNC(=O)CCNC(=O)[C@H](O)C(C)(C)COP(=O)(O)OP(=O)(O)OC[C@H]1O[C@@H](n2cnc3c(N)ncnc32)[C@H](O)[C@@H]1OP(=O)(O)O` (some centres unmarked) [3-hydroxyoleyl-CoA], with 57.5%.
For the molecule `[Cl-].[Cl-].[Zn+2]` [ZnCl2], the Relative activity in assay [3] stood at 25%.
As for `[Cl-].[Cl-].[Co+2]` [CoCl2], the Relative activity in assay [3] came to 34%.
The same measure, in the same setting: next, `[Ba+2].[Cl-].[Cl-]` [BaCl2]: 106%.
With `CCCCCCCCCCCCCCCC[N+](C)(C)C` [cetyltrimethylammonium chloride], the activity at 0.1 % in assay [1] worked out at 0%.
